Results taken from US20090253654A1 (priority 2005, published 2009).
Values belong to the compound of their own block, whether it stands above or below them.

How the values were obtained:
[1] = in vivo; settings: for Co (Brain), highest concentration achieved in mouse brain: i.v. injection of 3 mg/kg; for Kp: in vivo
Experimental: FIG. 5: Pharmacokinetics of pro-galantamine Gln-1062 (3 mg/kg) in the mouse. […] FIG. 5b is an excerpt (“zoom”) of FIG. 5a, showing the concentration range between 0.00 and 1.00 μg/g (substance/body weight) more in detail.
Co is the highest pro-galantamine concentration (ng/ml) achieved in mouse brain after i.v. injection of 3 mg/kg of pro-galantamine. R-Pro is the brain-to-blood concentration ratio of pro-galantamine, R-Gal that of galantamine under these experimental conditions. For comparison, Co and R-Gal are also provided for i.v. injection of the same amount of galantamine.
Determination of the pharmacokinetic profiles of Gln-1062 and its cleavage product galantamine in blood and brain. Determine the brain-to-blood concentration ratios of Gln-1062 and its cleavage product galantamine, and assess the blood-brain barrier penetration capacities.
Analytical method for estimation of Gln-1062 was evaluated for its linearity, precision & accuracy and recovery in SAM blood and brain homogenate using LC/MS/MS.
Blood samples were collected from the retro-orbital plexus. 0.5 ml of blood was collected into a pre-labeled polypropylene micro centrifuge tube containing sodium citrate as the anticoagulant, and kept on ice.
Immediately after blood withdrawal, brain was perfused with phosphate buffer saline (pH 7.4), removed and frozen on dry ice.
Brain samples were thawed on ice and weighed. n appropriate volume ice cold homogenizing media (methanol:water::20:80,v/v) added. n ice, homogenized the brain sample with the polytron homogenizer and make up the volume with homogenizing media to get 1 gm of brain per 4 mL of homogenate. after homogenizing, immediately freezed the brain homogenate samples at −80° C. until analysis.

[2] = target: T1, a4β2 neuronal nicotinic acetylcholine receptor (Homo sapiens, UniProt P17787+P43681); test: Whole-cell patch clamp recording of allosteric potentiation in HEK-293 cells; type: cell-based
T1 construct: expressed in transfected cells; host or cells: HEK-293
T1 sequence (P43681 29-627 limits assumed): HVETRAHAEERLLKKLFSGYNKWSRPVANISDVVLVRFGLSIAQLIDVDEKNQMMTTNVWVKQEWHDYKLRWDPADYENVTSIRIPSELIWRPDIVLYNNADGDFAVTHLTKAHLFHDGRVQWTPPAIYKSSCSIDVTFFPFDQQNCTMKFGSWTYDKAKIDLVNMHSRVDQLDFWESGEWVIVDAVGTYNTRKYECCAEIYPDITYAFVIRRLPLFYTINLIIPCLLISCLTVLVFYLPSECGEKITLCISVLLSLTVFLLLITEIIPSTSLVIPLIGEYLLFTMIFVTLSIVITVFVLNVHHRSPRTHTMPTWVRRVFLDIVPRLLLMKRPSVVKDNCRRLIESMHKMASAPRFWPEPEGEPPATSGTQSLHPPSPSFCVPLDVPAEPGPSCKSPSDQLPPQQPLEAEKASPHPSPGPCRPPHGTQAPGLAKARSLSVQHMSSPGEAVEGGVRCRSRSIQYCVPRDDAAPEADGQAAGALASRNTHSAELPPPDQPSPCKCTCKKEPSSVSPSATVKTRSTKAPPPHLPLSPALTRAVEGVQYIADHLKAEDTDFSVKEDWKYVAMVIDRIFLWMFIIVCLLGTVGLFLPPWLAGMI
T1 sequence (P17787 26-502): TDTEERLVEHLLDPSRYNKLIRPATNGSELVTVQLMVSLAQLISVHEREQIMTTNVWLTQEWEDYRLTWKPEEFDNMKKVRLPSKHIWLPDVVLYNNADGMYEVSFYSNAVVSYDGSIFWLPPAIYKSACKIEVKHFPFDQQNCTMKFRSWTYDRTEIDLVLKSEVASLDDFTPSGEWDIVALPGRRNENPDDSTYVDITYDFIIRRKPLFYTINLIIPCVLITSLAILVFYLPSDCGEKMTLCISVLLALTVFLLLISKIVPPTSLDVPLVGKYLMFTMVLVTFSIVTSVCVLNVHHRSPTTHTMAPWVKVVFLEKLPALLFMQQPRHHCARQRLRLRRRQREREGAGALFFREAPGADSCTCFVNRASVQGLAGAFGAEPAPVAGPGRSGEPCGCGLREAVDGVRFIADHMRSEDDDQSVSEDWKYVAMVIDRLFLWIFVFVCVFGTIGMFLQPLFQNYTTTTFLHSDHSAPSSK
Experimental: FIG. 4: Interaction of galantamine and pro-galantamine with a4β2 neuronal nicotinic acetylcholine receptor ectopically expressed in HEK-293 cells. The increase in response to acetylcholine in the presence of galantamine and Gln-1062, respectively, was determined by whole-cell patch clamp recording. Galantamine achieved a maximal enhancement of response of ˜40% whereas the pro-galantamine achieved a maximal enhancement of only ˜17%.
Investigation of the allosteric modulation effect of drug candidates on nicotinic acetylcholine receptors (nAChRs) expressed in HEK-293 cells by electrophysiology. Results shown as FIG. 4.
Single HEK-293 cells expressing either human α4β2, human α3β4, or chimeric chicken α7 (with mouse 5HT3) nAChR were plated on fibronectin-coated cover slips for 3 days before measurement. […] A programmable puller (Sutter, USA) was used to prepare a twin pair of ready for use pipettes. […] To evaluate an allosteric potentiating ligand (APL) effect of selected compounds on each subtype of nAChR, they were added to stimulating nicotine solutions at the following concentrations: 1, 5, 10, 50, 100, 500, 1,000, 5,000 and 10,000 nM, and solutions were applied to the cell surface during 500 ms pulses through the U-tube, and then corresponding currents, digitized to 10 kHz, were recorded for 10 s. […]

[3] = target: T2, brain cholinesterase (Mus musculus, UniProt P21836); type: biochemical; settings: mouse brain homogenate, 200 μM acetylthiocholine; pro-galantamines up to 50 μM
T2 construct: from tissue; host or cells: mouse brain homogenate
T2 sequence (P21836 32-614): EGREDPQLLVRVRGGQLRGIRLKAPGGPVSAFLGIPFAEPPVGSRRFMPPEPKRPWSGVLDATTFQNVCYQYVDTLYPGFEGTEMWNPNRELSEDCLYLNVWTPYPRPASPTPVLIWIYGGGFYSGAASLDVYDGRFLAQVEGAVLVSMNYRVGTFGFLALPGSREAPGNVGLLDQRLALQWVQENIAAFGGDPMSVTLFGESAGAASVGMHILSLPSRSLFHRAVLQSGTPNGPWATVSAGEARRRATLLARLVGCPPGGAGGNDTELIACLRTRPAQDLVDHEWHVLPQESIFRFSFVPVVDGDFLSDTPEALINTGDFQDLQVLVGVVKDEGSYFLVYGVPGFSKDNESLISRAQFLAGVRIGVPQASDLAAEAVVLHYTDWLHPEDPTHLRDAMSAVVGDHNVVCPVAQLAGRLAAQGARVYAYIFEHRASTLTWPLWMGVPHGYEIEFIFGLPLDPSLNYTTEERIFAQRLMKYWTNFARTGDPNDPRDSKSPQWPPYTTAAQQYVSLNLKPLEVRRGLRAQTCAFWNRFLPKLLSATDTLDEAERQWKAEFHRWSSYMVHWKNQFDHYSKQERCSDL
Experimental: A 20% mouse brain homogenate was used, supplemented with 200 μM of acetylthiocholine as substrate, and the initial reaction kinetics were measured according to Riddles P W, Blakeley R L, Zerner B., “Reassessment of Ellman's reagent” Methods Enzymol.
The brain is removed from the animal (mouse), shock frozen in liquid nitrogen and stored at minus 80° C. until use. Before preparing the extract, the frozen brain is thawed on ice and the weight is determined. Ice cold buffer (130 mM NaCl, 5 mM KCl, 2.5 mM CaCl2, 1 mM MgCl2, 5 mM Glucose, 5 mM HEPES, pH 7.4) is added to the thawed mouse brain (1:4, weight to volume, resulting in a 20% brain homogenate). The tissue is then homogenized in a potter homogeniser on ice, moving the piston up and down 11 times at 240 rpm. The freshly prepared mouse brain homogenate is divided into aliquots.
A modified Ellmann's esterase test is used. Briefly the method relies on the cleavage of the substrate acetylthiocholine to acetate and thiocholine. […] The inhibition is expressed as percent of the non inhibited reaction according to following equation: […]

[4] = test system: scopolamine-induced amnesia in mice; test: Reversal from scopolamine-induced amnesia in mice, T-maze alternation; type: in vivo, mouse; settings: i.p.
Experimental: Scopolamine induces a memory deficit that can be measured by […] alternation in a T-maze trial. The cognition enhancing drugs were i.p. injected at several different doses together with scopolamine 20 min before a T-maze trial. Recovery was measured as a function of dose, and the EC50 was determined for each drug.
Analysis of variance (ANOVA) was performed on the result data.

[5] = cited from earlier work
[6] = unmodified drug; cited from earlier work

Compound: C=C[C@@]12C=C[C@H](O)C[C@@H]1Oc1c(OC)ccc(CNC)c12 [10,11-Seco-11,12-dehydro-galantamine, (3R,4aS,9bS)-6-Methoxy-9-methylaminomethyl-3,4,4a,9b-tetrahydro-9b-vinyl-dibenzofuran-3-ol]
- melting point: 127 to 129 °C

Compound: COc1ccc2c3c1OC1C[C@@H](OC(=O)c4ccccc4)C=C[C@@]31CCN(C)C2 (stereo partly drawn) [GLN-1062, (4aS,6R,8aS)-4a,5,9,10,11,12-Hexahydro-3-methoxy-11-methyl-6H-benzofuro[3a,3,2-ef][2]benzazepin-6-ol, benzoate (ester)]
- maximal enhancement of response to acetylcholine [2]: ~17%
- inhibition of brain cholinesterase [3]: little, if any cholinesterase inhibitory activity
- Kp ([1]; SAM, mouse): > 19
- Co (Brain), highest concentration achieved in mouse brain [1]: 4812 ng/mL
- concentration of GLN-1062 in blood at start of curve ([1]; mouse, 3 mg/kg, FIG. 5b): about 0.3 μg/g
- Kp ([1]; mouse, iv, 3 mg/kg): 19.3
- potency relative to galantamine in reversing scopolamine-induced amnesia [4]: approximately 4 times

Compound: COc1ccc2c3c1OC1C[C@@H](OC(=O)C4CC4)C=C[C@@]31CCN(C)C2 (stereo partly drawn) [GLN-1076]
- Co (Brain), highest concentration achieved in mouse brain [1]: 1245 ng/mL
- Kp ([1]; mouse, iv, 3 mg/kg): 1.1

Compound: COc1ccc2c3c1O[C@H]1C[C@@H](O)C=C[C@@]31CCN(C)C2 [Galantamine]
- maximal enhancement of response to acetylcholine [2]: ~40%
- tissue to plasma ratio (T/P), spleen ([5]; female rat): ~20
- tissue to plasma ratio (T/P), kidney ([5]; male and female rat): 10-15
- tissue to plasma ratio (T/P), salivary and adrenal gland ([5]; male and female rat): 7-14
- brain to plasma ratio (T/P) ([5]; rat): ~1.5
- tissue to plasma ratio (T/P), lung, liver, heart, skeletal muscle and testes ([5]; rat): 2-4
- Co (Brain), highest concentration achieved in mouse brain [1]: 1741 ng/mL
- Kp ([1]; mouse, 3 mg/kg): ~1.3
- brain-to-plasma ratio [6]: ~1.3

More lines, now with the values ahead:

- Co (Brain), highest concentration achieved in mouse brain [1]: 1985 ng/mL
- Kp ([1]; mouse, iv, 3 mg/kg): 6.9
Compound: CCC(=O)O[C@H]1C=C[C@@]23CCN(C)Cc4ccc(OC)c(c42)O[C@H]3C1 [GLN-0978]

- Co (Brain), highest concentration achieved in mouse brain [1]: 3166 ng/mL
- Kp ([1]; mouse, iv, 3 mg/kg): 6.2
Compound: COc1ccc2c3c1O[C@H]1C[C@@H](OC(=O)C(C)C)C=C[C@@]31CCN(C)C2 [GLN-0979]

- Co (Brain), highest concentration achieved in mouse brain [1]: 2150 ng/mL
- Kp ([1]; mouse, iv, 3 mg/kg): 6.4
Compound: CCCCCC(=O)O[C@H]1C=C[C@@]23CCN(C)Cc4ccc(OC)c(c42)O[C@H]3C1 [GLN-0993]

- Co (Brain), highest concentration achieved in mouse brain [1]: 4665 ng/mL
- Kp ([1]; mouse, iv, 3 mg/kg): 7.5
Compound: CCC(C)C(=O)O[C@H]1C=C[C@@]23CCN(C)Cc4ccc(OC)c(c42)OC3C1 (stereo partly drawn) [GLN-1067]
